Source: patent publication US20090176731A1 (priority 2005, published 2009)
Like-named read-outs stand apart in the source and are kept apart here.

Columns and labels:
Calu-6 tumour xenograft = test: in vivo solid tumour model, Calu-6 tumour xenograft (WO 00/47212); details: once-daily oral, 28 days
HUVEC = HUVEC assay, endothelial cell proliferation (WO 00/47212); type: cell-based; details: Homo sapiens
range of models = details: once-daily oral administration; cited from earlier work

COc1cc2c(Oc3ccc4[nH]c(C)cc4c3F)ncnc2cc1OCCCN1CCCC1 [AZD2171, 4-(4-fluoro-2-methyl-1H-indol-5-yloxy)-6-methoxy-7-(3-(pyrrolidin-1-yl)propoxy)quinazoline]
inhibition of growth of Calu-6 tumour xenograft (Calu-6 tumour xenograft; 1.5 mg/kg/day, P<0.01): 49%
inhibition of growth of Calu-6 tumour xenograft (Calu-6 tumour xenograft; 3 mg/kg/day, P<0.00001): 69%
inhibition of growth of Calu-6 tumour xenograft (Calu-6 tumour xenograft; 6 mg/kg/day, P<0.00001): 91%
IC50 (HUVEC; HUVEC, basal (unstimulated) proliferation, read-out: IC50 for inhibition of basal endothelial cell proliferation): > 500 nM
IC50 (HUVEC; VEGF-stimulated, HUVEC assay, read-out: IC50 for inhibition of VEGF-stimulated endothelial cell proliferation): 0.4 ± 0.2 nM
anti-tumour activity in a range of models (range of models): broad-spectrum anti-tumour activity
